# “Also recorded” adds a separate entry of the source.
# Key:
# E.G7-OVA [1] = assay: prophylactic efficacy of OVA / OVA257-264 vaccination, E.G7-OVA model; type: in vivo, C57/BL6 mice; set-up: anti-tumor activity / antigen specific efficacy / adjuvant activity following prophylactic vaccination: dose or concentration left out as unconfirmed; details: for efficacy of ODN sequences: LNA (encapsulated) forms, FIG. 35; for antigen specific efficacy / adjuvant activity following prophylactic vaccination: free or encapsulated ODN 1 mixed with OVA or OVA257-264, SC; for prophylactic effect on tumor growth: OVA257-264 peptide, LNA containing ODN 30 (PO), SC for 2 weeks, FIG. 31; for anti-tumor activity: antigen alone, once weekly vaccination, 2 injections
# Method: Vaccinations. B6 mice were vaccinated subcutaneously (SC) with […] per injection. Dosing schedules were either q7dx2 or q4dx4 and are indicated in the individual figure legends. CFA mixtures were very viscous and had to be given with a larger gauge syringe. For humoral studies, a prime (day 0) and boost (day 14) strategy was used and blood samples were collected at various times by tail nicking.
# Efficacy studies. E.G7-OVA or EL-4 thymoma cell lines were used throughout the study. These cells were cultured in vitro according to established methods. For tumor studies, 2.5×106 E.G7-OVA cells were injected subcutaneously in […] of PBS containing 1% FCS. Tumor measurements were made by repeated perpendicular measurements of tumor dimensions and using the formula: […]
# Full-length OVA and the immunodominant cytotoxic T lymphocyte (CTL) peptide epitope (OVA257-264) were used to evaluate cell mediated immune responses and the prophylactic and therapeutic efficacy of OVA vaccination against the E.G7-OVA transfected cell line, using LNA both as an adjuvant and as the basis for a cancer vaccine formulation. LNA formulations for this experiment were prepared using DSPC:Chol:DODAP:PEGCer14 at a ration of 25:45:20:10
# The anti-tumor activity of OVA and OVA257-264 were examined against the murine thymoma cell line, E.G7-OVA, implanted subcutaneously (SC) in C57/BL6 mice. […] Given the activity observed with the protein or peptide alone, this dose and schedule represents a useful model to evaluate adjuvants designed to boost the immune response against OVA and/or OVA257-264.
# To examine LNA formulations as adjuvants, the impact of three variables were evaluated on vaccination and efficacy in the prophylactic E.G7-OVA model: (1) the activity of free vs. encapsulated ODN 1, (2) phosphodiester (PO) vs phosphorothioate (PS) ODN, and (3) full-length OVA protein vs single-epitope peptide OVA257-264 (FIGS. 30A and B). In this set of studies, free and encapsulated ODN 1 was simply mixed with antigen and administered SC near the nape of the neck. ODN and antigen doses in these studies were […], respectively.
# [2] = tested on: EG.7 Ova expressing tumor cells; assay: prophylactic anti-tumor efficacy, EG7-OVA tumor model, q7d×3; type: in vivo, C57BI/6 mice
# Method: Efficacy studies. E.G7-OVA or EL-4 thymoma cell lines were used throughout the study. These cells were cultured in vitro according to established methods. […] Tumor measurements were made by repeated perpendicular measurements of tumor dimensions and using the formula: […]
# Anti-tumor efficacy induced by subcutaneous immunization was assessed in C57BI/6 (5 animals per group) in a prophylactic immunization model. Mice were immunized subcutaneously with 3 injections on a q7d×3 dosing regimen on Days 0, 7 and 14 at a dose of 100 μg oligonucleotide and 20 μg of OVA antigen dose. […] Mice were monitored 3 times weekly to assess tumor growth and weight gain. Control mice were injected with one of PBS or HBS and […] of OVA antigen on the same schedule described above. Oligonucleotides were encapsulated in a lipid particle having a lipid composition of one of POPC: CHOL: DODAP:PEGCer14 or DSPC: CHOL: DODAP:PEGCer14 each in a ratio of 25:45:20:10. All comparisons of methylated and unmethylated oligonucleotides were done using like lipid particles. Results from these efficacy experiments are detailed in FIGS. 12-15, 18-21, and 25-28. Day 0 on each of the Figures is the day each animal was challenged with the tumor.
# [3] = tested on: leukocytes bearing the activation marker CD69; assay: in vitro stimulation of CD69 on leukocytes in mouse whole blood; type: cell-based; details: oligonucleotide encapsulated in POPC:CHOL:DODMA:PEGDMG 20:45:25:10
# Method: (§1) CD69 is a cell activation marker, which quantifies the activation of NK cells, B cells and monocytes. Expression of CD69 on NK cells indicates cell activation and production of IFN-γ, which is important to inducing a Th-1 immune response. Free and encapsulated ODN1 and 2 were tested in vitro and in vivo for their ability to induce CD69 expression. A dose of 0.1 mg/ml of ODN2 and 10 mg/ml ODN1 were used in vitro and 10 mg/kg of ODN2 and 20 mg/kg of ODN1 in vivo. Each oligonucleotide was encapsulated in a lipid particle composed of POPC:CHOL:DODMA:PEGDMG in a ratio of 20:45:25:10.
# FIG. 1 illustrates the in vitro stimulation of leukocytes bearing the activation marker CD69 from treating mouse whole blood with free oligonucleotides and encapsulated oligonucleoties, specifically ODN1 and 2. When mouse whole blood was treated in vitro with free oligonucleotides there was a dose responsive increase in the amount of CD69 positive B-cells, monocytes and to some extent, NK cells, according to the amount of free oligonucleotide used 15 hours after treatment. […] However, when these same oligonucleotides were encapsulated in a lipid vesicle, the in vitro stimulation of CD69 production on these same cell types was reduced or abolished altogether.
# dendritic cells = assay: expansion of dendritic cells (CD11c, DEC205) in spleen, blood and lymph nodes; type: in vivo, ICR mice; details: lipid encapsulated; single i.v. injection 20 mg/kg; versus PBS control = 100%
# Method: ICR mice were immunized with a single intravenous injection of encapsulated oligonucleotides at a dose of 20 mg/kg and the control ICR mouse was injected with PBS. […] Each of these markers are specific to dendritic cells though they may represent different cell sub-populations. In each of FIGS. 4 and 5 the control was plotted as equivalent to 100% and the effect of ODN1m for each backbone configuration was plotted as a percentage of that control.
# [4] = tested on: IL-12, IL-6, IFN-γ and MCP-1; assay: plasma cytokine levels after i.v. injection; type: in vivo, ICR mice; details: for stimulation of plasma IL-6, IL-12, IFN-γ and MCP-1: encapsulated in DSPC:Chol:DODAP:PEG-CER14 20:45:25:10, i.v.
# Method: As noted above, with non-lipid encapsulated oligonucleotides the backbone is traditionally modified so as to reduce molecular degradation by nucleases. However, on encapsulation, such a modification is no longer required to prevent degradation. To establish the effect of a different phosphate backbone on cytokine stimulation induced by lipid encapsulation, mice were injected with oligonucleotides having both PO and PS backbones, and cytokine stimulation was measured over a series of points in time (as shown in FIG. 6 and 7B) and over a sliding dosage scale as shown in FIG. 7A. In this experiment ICR mice were injected i.v. with a 20 mg ODN/kg dose of free PO ODN1, encapsulated PO-ODN1 and encapsulated PS-ODN1. […] Cytokine stimulation is generally indicative of a cellular immune response as is a chemokine response in MCP-1. Oligonucleotides were encapsulated in a lipid particle composed of DSPC:Chol:DODAP:PEG-CER14 in a ratio of 20:45:25:10.
# [5] = tested on: leukocytes bearing the activation marker CD69; assay: in vivo stimulation of the CD69 marker after injection; set-up: species or system ICR mice; details: lipid encapsulated oligonucleotide; 10 mg/kg ODN2, 20 mg/kg ODN1; 16 and 24 hours after injection
# Method: as §1
# When the same oligonucleotides were tested in vivo, however, surprising results were obtained. FIG. 2 illustrates that in vivo treatment of ICR mice by injection with encapsulated or free oligonucleotides produces results that are contrary to those obtained in vitro.
# B16 cells = assay: TRP-2 peptide vaccination, B16 pulmonary metastases; type: in vivo, mice; details: SC weekly ×3, then B16 cells IV
# Method: TRP-2 and gp100 studies were conducted using the B16/BL6 murine melanoma model. B16 cells (1.0×105) were injected IV in a volume of […]. Typically, animals were vaccinated weekly for 2-3 injections and B16 cells were then administered 1-2 days after the final vaccination. Animals were terminated between days 14-18 post-B16 injection, lungs were removed, and metastases were counted using a stereomicroscope.
# TRP-2 peptide was mixed with various adjuvant formulations and was administered SC weekly (×3), followed by an IV administration of B16 cells, which aggressively seed to the lung to form numerous micro metastases. […] CFA is a balanced Th1/Th2 and gave a modest response (mean=46), consistent with the E.G7-OVA studies.
# E.G7-OVA [6] = assay: therapeutic efficacy of OVA vaccination, established E.G7-OVA tumors; type: in vivo, B6 mice; details: treatment q4d×4 once tumors had reached ~250 mm3
# Text: Currently, the clinical objective is to generate a therapeutic host immune responses that can reduce the progression of established cancers. To evaluate the effect of vaccination on therapeutic efficacy in the E.G7-OVA model, B6 mice were implanted with E.G7-OVA cells and were subsequently treated with OVA, OVA +ODN 1 or OVA +LNA/ODN 1 on a q4d×4 schedule once the tumors had reached ˜250 mm3.
# [7] = TRP-2 peptide alone or mixed with free ODN or other adjuvant
# [8] = encapsulated ODN (LNA) mixed with TRP-2 peptide
# [9] = encapsulated form versus free at the same dose
molecule,measurement,setting,value
"ODN1: 5′-TAACGTTGAGGGGCAT-3, SEQ ID NO: 2, human c-myc (tested as both phosphodiester and phosphorothioate backbone forms, lipid-encapsulated, further chemistry not given here)",efficacy of ODN sequences,E.G7-OVA [1],strongest responses
same,antigen specific efficacy / adjuvant activity following prophylactic vaccination,E.G7-OVA [1],encapsulation of ODN 1 resulted in increased antigen specific efficacy
same,reduction in tumor growth,"[2]; free ODN, 100 μg ODN + 20 μg OVA s.c. q7d×3, tumor challenge Day 21",showed a greater reduction in tumor growth than their methylated counterparts
same,reduction in tumor growth,"[2]; lipid encapsulated ODN, PO backbone, 100 μg ODN + 20 μg OVA s.c. q7d×3",lost its efficacy
same,number of animals remaining in the study,"[2]; lipid encapsulated ODN, FIG. 19B",essentially identical throughout the study
same,"stimulation of CD69 positive B-cells, monocytes and NK cells",[3],reduced the stimulation of CD69 on NK cells below the control level
same,expansion of CD11c positive dendritic cells,dendritic cells,stimulated the expansion of CD11c positive cells in spleen and whole blood
same,expansion of DEC205 positive dendritic cells,dendritic cells,"stimulate the expansion of DEC205 positive cells in spleen, whole blood and lymph node"
same,late IFN-γ peak,"[4]; encapsulated PS oligonucleotides, 6 days after treatment",produced a strong IFN-γ peak; also recorded: produced an IFN-gamma peak
same,"stimulation of plasma IL-6, IL-12, IFN-γ and MCP-1",[4],increased IL-12 induction
same,stimulation of the CD69 marker in vivo,[5],able to stimulate production of CD69 on NK cells
same,mean number of metastases,B16 cells; [7],37
same,mean number of metastases,B16 cells; [8],6
"ODN 3: 5′-TAAGCATACGGGGTGT-3, SEQ ID NO: 3; non-CpG ODN control sequence for ODN 1 (chemistry not given here)",mean number of metastases,B16 cells; [7],83
same,mean number of metastases,B16 cells; [8],23
"TRP-2 peptide: immunodominant MHC class I peptide epitope of TRP-2, VYDFFVWL [reference compound]",mean number of metastases,B16 cells; [7],82
mOVA: acylated OVA257-264 peptide; modified peptide with stearoyl group at the N-terminus [reference compound],prophylactic effect on tumor growth,E.G7-OVA [1],no prophylactic effect
same,anti-tumor activity,E.G7-OVA [1],no anti-tumor activity was observed
"pOVA: immunodominant CTL peptide epitope OVA257-264 (ESIINFEK; UniProt P01012 257-264, looked up, fragment) [reference compound]",prophylactic effect on tumor growth,E.G7-OVA [1],no prophylactic effect
same,anti-tumor activity,E.G7-OVA [1],no anti-tumor activity was observed
"ODN14: 5′-AACC GTT GAG GGG CAT-3′, SEQ ID NO: 14, human c-myc (AACCGTTGAGGGGCAT; tested as both phosphodiester and phosphorothioate backbone forms, lipid-encapsulated, further chemistry not given here)",increase in IFN-γ,[4]; [9],20 fold
same,increase in IL-6,[4]; [9],1000 fold
same,increase in peak plasma IL-12,[4]; [9],2.5 fold
same,"stimulation of plasma IL-6, IL-12, IFN-γ and MCP-1",[4],increased IL-12 induction
"ODN 29: 5′-CAACGTTATGGGGAGA-3′, SEQ ID NO: 29; non-antisense version of ODN 1 (chemistry not given here)",efficacy of ODN sequences,E.G7-OVA [1],strongest responses
"OVA: Hen egg albumin (ovalbumin), full-length protein, model tumor-associated antigen (protein, UniProt P01012 1-386, looked up, full-length, Hen egg albumin (ovalbumin), full-length protein, model tumor-associated antigen) MGSIGAASMEFCFDVFKELKVHHANENIFYCPIAIMSALAMVYLGAKDSTRTQINKVVRFDKLPGFGDSIEAQCGTSVNVHSSLRDILNQITKPNDVYSFSLASRLYAEERYPILPEYLQCVKELYRGGLEPINFQTAADQARELINSWVESQTNGIIRNVLQPSSVDSQTAMVLVNAIVFKGLWEKAFKDEDTQAMPFRVTEQESKPVQMMYQIGLFRVASMASEKMKILELPFASGTMSMLVLLPDEVSGLEQLESIINFEKLTEWTSSNVMEERKIKVYLPRMKMEEKYNLTSVLMAMGITDVFSSSANLSGISSAESLKISQAVHAAHAEINEAGREVVGSAEAGVDAASVSEEFRADHPFLFCIKHIATNAVLFFGRCVSP",anti-tumor activity,E.G7-OVA [1],Anti-tumor activity was observed
same,antigen specific efficacy / adjuvant activity following prophylactic vaccination,E.G7-OVA [1],dramatically improved immune responses and efficacy
same,tumor growth of established tumors,E.G7-OVA [6],no delay in tumor growth

# Source: patent publication US20040013649A1, “Cancer vaccines and methods of using the same” (Inex Pharmaceuticals Corporation, priority 2002, published 2004)
